Several values for one entry are separate records, joined by “and”; a condition that tells them apart may be missing. Equal values may be shown once.
Assays:
[1] = Kinetic measurements: stopped-flow ESR, reduction of galvinoxyl radical; type: physicochemical; conditions: for Second order rate constants (k2) for the reduction of galvinoxyl radical / reactivity with galvinoxyl (in words): ethanol; for Second order rate constants (k2) for the reduction of galvinoxyl radical: 20° C.±2° C., flavonoid 0.2 mM + galvinoxyl 0.2 mM, unit printed only in b437; for reactivity with galvinoxyl (in words): kinetics of reduction; for decrease in rate of reaction with galvinoxyl relative to quercetin: fold decrease, versus quercetin
Method: (§1) Within a biological system where a number of polyphenols may be present at similar concentrations, antioxidant efficacy may be predominantly governed by reaction kinetics rather than stoichiornetry. Consequently, the antioxidant potential of thirteen flavonoids and vitamin E were assessed and their kinetic and stochiometric reduction of a synthetic radical using stopped-flow electron spin resonance (ESR) spectroscopy has been compared. The radical used was galvinoxyl (Galv-O°), (2,6-di-tert-butyl-α-(3,5-di-tert-butyl-4-oxo-2,5-cyclohexadien-1-ylidene)-p-tolyloxy) shown below:
Galv-O°+Phenol-OH≈Galv-OH+phenol-O°
The process is governed by the O—H bond dissociation enthalpy of the donor.
Ethanolic solutions of flavonoid (0.2 mM) and galvinoxyl (0.2 mM) were de-oxygenated under a stream of nitrogen gas. Aliquots (6 ml) were transferred to Hamilton gas-tight syringes (10 ml) coupled to a pneumatic ram and connected to a two-stream ESR quartz flow-cell. In situ reaction at 20° C.±2° C. between the flavonoid and galvinoxyl was initiated by rapidly evacuating the syringes. […] Decay curves were obtained by operating in timesweep mode with the static field set at the resonance maximum of the galvinoxyl signal.

[2] = Stoichiometric measurements: ESR, reduction of excess galvinoxyl radical; type: physicochemical; conditions: galvinoxyl radicals reduced per molecule, ethanol, flavonoid 0.1 mM + galvinoxyl 0.5 mM, 5 minutes from mixing
Method: as §1
Ethanolic solutions of flavonoids (0.1 mM) were prepared. Aliquots (3 ml) of an ethanolic galvinoxyl solution (0.5 mM) were mixed with an equal volume of flavonoid solution then transferred to an ESR quartz cell. The spectra and reaction stoichiometry were evaluated. In brief, the spectra of the unreacted galvinoxyl were obtained 5 minutes from mixing, by which time equilibration was complete. The galvinoxyl concentrations remaining were calculated by double integration of the signal and comparing with the control experiment where ethanol was added to the galvinoxyl solution instead of flavonoid solution.
The stoichiometry of the reaction of these compounds with the galvinoxyl free radical was determined by adding the flavonoid, or vitamin E, to an excess of the radical and allowing the reaction to proceed to the endpoint.

[3] = test system: rat liver microsomes from vitamin E-deficient rats; assay: Inhibition of TBARS production in rat liver microsomes from vitamin E-deficient rats; type: biochemical; conditions: for TBARS production (Mean): after 20 minutes incubation with Fe(II)-ADP/ascorbate, normalised to a tocopherol reading of 20, 30 minutes pre-incubation, higher reading = lower protection; for membrane protection against TBARS production (in words): over the 20 minute oxidation period
Method: Inhibition of TBARS production in rat liver microsomes from vitamin E-deficient rats by pre-incubation with target antioxidant and related compounds. Microsomes are subcellular fractions containing membrane fragments. In vitamin E-deficient rats, microsomes are especially prone to oxidative free radical damage. This can be quantified in terms of the production of thiobarbituric acid reactive substances (TBARS) which result from radical-mediated destruction of the polyunsaturated fatty acid constituents. Consequently, this is a useful biological model to determine the efficacy of phytochemicals as antioxidant membrane protectants. Vitamin E-deficient microsomal suspensions were incubated for 30 minutes with one of myricetin, sample A, sample B, sample C (as shown below) or d-alpha-tocopherol, or with a compound 9c, 9d, 9e, 9e*, 9f, 9g, 9g*, 9h, 9i* or 9j (prepared as described above in Examples 1 to 10). […] TBARS production was then measured by HPLC.

| Compound | Second order rate constants (k2) for the reduction of galvinoxyl radical [1] [mol^−1 dm^3 s^−1] | Reaction Stoichiometry for the reduction of galvinoxyl radical [2] | TBARS production (Mean) [3] | further results |
| --- | --- | --- | --- | --- |
| COc1ccc([C@@H]2CC(=O)c3c(O)cc(O)cc3O2)cc1O [Hesperitin] | 6 ± 0.5 | 0.20 ± 0.02 |  | reactivity with galvinoxyl (in words) [1]: little reactivity |
| CC(C)CCCC(C)CCCC(C)CCc1ccc2c(=O)c(O)c(-c3cc(O)c(O)c(O)c3)oc2c1 (stereo not drawn) [compound 9i*, 3-Hydroxy-2-(3,4,5-trihydroxy-phenyl)-7-(3,7,11-trimethyl-dodecyl)-chromen-4-one] |  |  | 32.9769 |  |
| CCCCCCCCCCCCc1ccc2c(=O)c(O)c(-c3cc(O)c(O)c(O)c3)oc2c1 [compound 9h, 3-Hydroxy-2-(3,4,5-trihydroxy-phenyl)-7-dodecyl-chromen-4-one] |  |  | 62.1021 |  |
| CCCCc1ccc2c(=O)c(O)c(-c3cc(O)c(O)c(O)c3)oc2c1 [9d, 7-Butyl-3-hydroxy-2-(3,4,5-trihydroxy-phenyl)-chromen-4-one] |  |  | 121.743 |  |
| O=c1c(O)c(-c2ccccc2O)oc2cc(O)cc(O)c12 [Datiscetin] | 22 ± 2 | 1.74 ± 0.02 |  | Second order rate constants (k2) for the reduction of galvinoxyl radical ([1]; listed as datiscetin): 22 mol^−1 dm^3 s^−1; reduction in rate constant relative to kaempferol ([1]; fold reduction, versus kaempferol): 56 fold; Reaction Stoichiometry for the reduction of galvinoxyl radical ([2]; listed as datiscetin): ~1.8 |
| O=c1c(O)c(-c2cc(O)c(O)cc2O)oc2ccccc12 [Control C] |  |  | 186.6221 |  |
| CCCCCCCCCCCCCCCCCCc1ccc2c(=O)c(O)c(-c3cc(O)c(O)c(O)c3)oc2c1 [compound 9j, 3-Hydroxy-7-octadecyl-2-(3,4,5-trihydroxy-phenyl)-chromen-4-one] |  |  | 107.849 |  |
| COc1ccc(-c2oc3cc(O)cc(O)c3c(=O)c2O)cc1O [Tamarixetin] | 165 ± 20 | 1.14 ± 0.03 |  | decrease in rate of reaction with galvinoxyl relative to quercetin [1]: 15 fold |
| O=c1c(O)c(-c2ccc(O)c(O)c2)oc2cc(O)ccc12 [Fisetin] | 1623 ± 199 | 3.68 ± 0.03 |  |  |
| CCCCCCCCCc1cccc2c(=O)c(O)c(-c3cc(O)c(O)cc3O)oc12 [compound 14] |  |  | 104.4307 |  |
| O=c1c(O)c(-c2ccc(O)c(O)c2O)oc2ccccc12 [Control D] |  |  | 172.0899 |  |
| CCCCCCCCCCc1ccc2c(=O)c(O)c(-c3cc(O)c(O)cc3O)oc2c1 [compound 13g, 3,2′,4′,5′-tetrahydroxy-7-decyl-flavone] |  |  | 20.1401 | membrane protection against TBARS production (in words) [3]: good membrane protection |
| O=C1c2c(O)cc(O)cc2O[C@H](c2ccc(O)c(O)c2)[C@H]1O (racemic) [Taxifolin] | 337 ± 32 | 2.82 ± 0.05 |  | decrease in rate of reaction with galvinoxyl relative to quercetin [1]: 7 fold; reduction in rate compared with catechin ([1]; fold reduction, versus catechin): 5 fold; Reaction Stoichiometry for the reduction of galvinoxyl radical ([2]; listed as taxifolin): 2.8 |
| COc1cc(-c2oc3cc(O)cc(O)c3c(=O)c2O)cc(OC)c1OC [Tri-Ome-Myricetin, myricetin-3′,4′,5′-trimethylether] | 74 ± 14 | 1.06 ± 0.02 |  |  |
| CCCCCCCCCCc1ccc2oc(-c3cc(O)c(O)c(O)c3)c(O)c(=O)c2c1 [compound 11g, 6-Decyl-3-hydroxy-2-(3,4,5-trihydroxy-phenyl)-chromen-4-one] |  |  | 81.82 |  |
| Cc1c(C)c2c(c(C)c1O)CC[C@@](C)(CCC[C@H](C)CCC[C@H](C)CCCC(C)C)O2 [Vitamin E, d-(2R,4′R,8′R)-α-Tocopherol] | 524 ± 48 | 2.14 ± 0.12 |  | TBARS production (Mean) ([3]; listed as da-toc): 19.9996 and 20 |
| CCCCCCCCc1ccc2c(=O)c(O)c(-c3cc(O)c(O)c(O)c3)oc2c1 [9f, 7-Octyl-3-hydroxy-2-(3,4,5-trihydroxy-phenyl)-chromen-4-one] |  |  | 46.1879 |  |
| O=c1c(O)c(-c2ccc(O)c(O)c2)oc2cc(O)cc(O)c12 [Quercetin] | 2383 ± 258 | 3.27 ± 0.04 |  | change of rate constant compared with luteolin (in words) ([1]; versus luteolin): doubling; Reaction Stoichiometry for the reduction of galvinoxyl radical ([2]; listed as quercetin): 3.3 |
| O=c1cc(-c2ccc(O)c(O)c2)oc2cc(O)cc(O)c12 [Luteolin] | 1212 ± 45 | 3.24 ± 0.01 |  |  |
| CCCCCCCCc1cc2c(=O)c(O)c(-c3cc(O)c(O)c(O)c3)oc2cc1CC [compound 12, 7-Ethyl-3-hydroxy-6-octyl-2-(3,4,5-trihydroxy-phenyl)-chromen-4-one] |  |  | 53.98 |  |
| O=c1c(O)c(-c2cc(O)c(O)c(O)c2)oc2cc(O)cc(O)c12 [Myricetin] | 14463 ± 1767 | 4.08 ± 0.01 | 147.6 and 147.6306 | reactivity with galvinoxyl (in words) [1]: fastest; membrane protection against TBARS production (in words) [3]: almost no protection; Reaction Stoichiometry for the reduction of galvinoxyl radical ([2]; listed as myricetin): 4.1 |
| O=c1c(O)c(-c2ccccc2)oc2cc(O)cc(O)c12 [Galangin] | 18 ± 1 | 1.01 ± 0.03 |  | reactivity with galvinoxyl (in words) [1]: reacted only very slowly |
| O=c1c(O)c(-c2cc(O)c(O)c(O)c2)oc2cc(O)ccc12 [Control A] |  |  | 158.348 |  |
| CCc1ccc2c(=O)c(O)c(-c3cc(O)c(O)c(O)c3)oc2c1 [compound 9c, 7-Ethyl-3-hydroxy-2-(3,4,5-trihydroxy-phenyl)-chromen-4-one] |  |  | 117.461 |  |
| O=c1c(O)c(-c2ccc(O)cc2O)oc2cc(O)cc(O)c12 [Morin] | 10134 ± 459 | 1.83 ± 0.01 |  | Second order rate constants (k2) for the reduction of galvinoxyl radical ([1]; listed as morin): 10134 mol^−1 dm^3 s^−1; reactivity with galvinoxyl (in words) [1]: fastest; increase in rate relative to kaempferol ([1]; fold increase, versus kaempferol): 8 fold; Reaction Stoichiometry for the reduction of galvinoxyl radical ([2]; listed as morin): 1.8 |
| Catechin | 1574 ± 79 | 2.96 ± 0.01 |  |  |

From patent publication US7601754B2, “Flavonoid compounds as therapeutic antioxidants” (Antoxis Limited, priority 2002, dated 2009)
